Test results published in patent US9108999B2, “2′, 4′-difluoro-2′-methyl substituted nucleoside derivatives as inhibitors of HCV RNA replication” (priority 2011, dated 2015).
Read-outs that look alike come from different tables or passages of the source.

What was measured:
[1] = in vitro; details: human
[2] = test system: genotype 1b replicon construct NK5.1 (HCV subgenomic RNA) in Huh7 cell line 2209-23; assay: microbe, parasite or virus in culture; type: cell-based, Hepatitis C Virus; details: read-out: HCV Replicon IC50
[3] = test system: HCV replicon cells (2209-23); details: read-out: WST-1 Cytotoxicity CC50; replicon cells 2209-23, three days incubation, WST-1 OD 450 nm
[4] = Hepatitis C virus, Huh-7, 72 h, Huh7 replicon cells 2209-23, three days incubation, Renilla luciferase readout
[5] = Huh7 replicon cells 2209-23, three days incubation, Renilla luciferase readout

| SMILES | CC50 at 3 days [1] | IC50 [2, 4] | CC50 [3] | IC50 [2, 5] | IC50 ([2]; Hepatitis C virus, Huh-7, 72 h) |
| --- | --- | --- | --- | --- | --- |
| CC(C)OC(=O)[C@H](C)N[P@](=O)(OC[C@@]1(F)O[C@@H](n2ccc(=O)[nH]c2=O)[C@](C)(F)[C@@H]1O)Oc1ccccc1 [Compound I-10, (S)-2-{(S)-[(2S,3S,4R,5R)-5-(2,4-Dioxo-3,4-dihydro-2H-pyrimidin-1-yl)-2,4-difluoro-3-hydroxy-4-methyl-tetrahydro-furan-2-ylmethoxy]-phenoxy-phosphorylamino}-propionic acid isopropyl ester] | > 100 µM | 0.171 µM |  |  |  |
| CC(C)OC(=O)[C@H](C)N[P@@](=O)(OC[C@@]1(F)O[C@@H](n2ccc(=O)[nH]c2=O)[C@](C)(F)[C@@H]1O)Oc1cccc2ccccc12 [Compound I-8, (S)-2-[(R)-[(2S,3S,4R,5R)-5-(2,4-Dioxo-3,4-dihydro-2H-pyrimidin-1-yl)-2,4-difluoro-3-hydroxy-4-methyl-tetrahydro-furan-2-ylmethoxy]-(naphthalen-1-yloxy)-phosphorylamino]-propionic acid isopropyl ester] |  |  | > 100 µM | 1.03 µM |  |
| CC(C)OC(=O)[C@H](C)NP(=O)(OC[C@@]1(F)O[C@@H](n2ccc(=O)[nH]c2=O)[C@](C)(F)[C@@H]1O)Oc1ccccc1 (stereo partly drawn) [Compound I-1, (S)-2-{[(2S,3S,4R,5R)-5-(2,4-Dioxo-3,4-dihydro-2H-pyrimidin-1-yl)-2,4-difluoro-3-hydroxy-4-methyl-tetrahydro-furan-2-ylmethoxy]-phenoxy-phosphorylamino}-propionic acid isopropyl ester] | > 100 µM |  |  |  |  |
| CC(C)OC(=O)[C@H](C)NP(=O)(OC[C@@]1(F)O[C@@H](n2ccc(=O)[nH]c2=O)[C@](C)(F)[C@@H]1O)Oc1cccc2ccccc12 (stereo partly drawn) [Compound I-2, (S)-2-[[(2S,3S,4R,5R)-5-(2,4-Dioxo-3,4-dihydro-2H-pyrimidin-1-yl)-2,4-difluoro-3-hydroxy-4-methyl-tetrahydro-furan-2-ylmethoxy]-(naphthalen-1-yloxy)-phosphorylamino]-propionic acid isopropyl ester] | > 100 µM | 0.115 µM |  |  |  |
| CC(C)OC(=O)[C@H](C)NP(=O)(OC[C@@]1(F)O[C@@H](n2ccc(=O)[nH]c2=O)[C@](C)(F)[C@@H]1O)Oc1ccc2ccccc2c1 (stereo partly drawn) [Compound I-3, (S)-2-[[(2S,3S,4R,5R)-5-(2,4-Dioxo-3,4-dihydro-2H-pyrimidin-1-yl)-2,4-difluoro-3-hydroxy-4-methyl-tetrahydro-furan-2-ylmethoxy]-(naphthalen-2-yloxy)-phosphorylamino]-propionic acid isopropyl ester] | > 100 µM |  |  |  |  |
| CC(C)OC(=O)[C@H](C)N[P@@](=O)(OC[C@@]1(F)O[C@@H](n2ccc(=O)[nH]c2=O)[C@](C)(F)[C@@H]1O)Oc1ccccc1 [Compound I-11, (S)-2-{(R)-[(2S,3S,4R,5R)-5-(2,4-Dioxo-3,4-dihydro-2H-pyrimidin-1-yl)-2,4-difluoro-3-hydroxy-4-methyl-tetrahydro-furan-2-ylmethoxy]-phenoxy-phosphorylamino}-propionic acid isopropyl ester] | 95.6 µM | 1.31 µM |  |  |  |
| CC(C)OC(=O)[C@H](C)NP(=O)(OC[C@@]1(F)O[C@@H](n2cc(Br)c(=O)[nH]c2=O)[C@](C)(F)[C@@H]1O)Oc1ccc2ccccc2c1 (stereo partly drawn) [Compound I-16, (S)-2-[[(2S,3S,4R,5R)-5-(5-Bromo-2,4-dioxo-3,4-dihydro-2H-pyrimidin-1-yl)-2,4-difluoro-3-hydroxy-4-methyl-tetrahydro-furan-2-ylmethoxy]-(naphthalen-2-yloxy)-phosphorylamino]-propionic acid isopropyl ester] | > 100 µM |  |  |  | 77.6 µM |
| CC(C)OC(=O)[C@H](C)N[P@@](=O)(OC[C@@]1(F)O[C@@H](n2cc(Br)c(=O)[nH]c2=O)[C@](C)(F)[C@@H]1O)Oc1ccc2ccccc2c1 [Compound I-15] |  |  | 38.5 µM | 13.2 µM |  |
| CCC(=O)O[C@H]1[C@@](C)(F)[C@H](n2ccc(=O)[nH]c2=O)O[C@]1(F)COP(=O)(N[C@@H](C)C(=O)OC(C)C)Oc1cccc2ccccc12 (stereo partly drawn) [Compound I-5, (S)-2-[[(2S,3S,4R,5R)-5-(2,4-Dioxo-3,4-dihydro-2H-pyrimidin-1-yl)-2,4-difluoro-4-methyl-3-propionyloxy-tetrahydro-furan-2-ylmethoxy]-(naphthalen-1-yloxy)-phosphorylamino]-propionic acid isopropyl ester] | 67.8 µM | 0.151 µM |  |  |  |
| CC(C)OC(=O)[C@H](C)N[P@](=O)(OC[C@@]1(F)O[C@@H](n2cc(Br)c(=O)[nH]c2=O)[C@](C)(F)[C@@H]1O)Oc1cccc2ccccc12 [Compound I-12, (S)-2-[(S)-[(2S,3S,4R,5R)-5-(5-Bromo-2,4-dioxo-3,4-dihydro-2H-pyrimidin-1-yl)-2,4-difluoro-3-hydroxy-4-methyl-tetrahydro-furan-2-ylmethoxy]-(naphthalen-1-yloxy)-phosphorylamino]-propionic acid isopropyl ester] | 34.8 µM | 17.4 µM |  |  |  |
| CC(C)OC(=O)[C@H](C)NP(=O)(OC[C@@]1(F)O[C@@H](n2ccc(=O)[nH]c2=O)[C@](C)(F)[C@@H]1OP(=O)(N[C@@H](C)C(=O)OC(C)C)Oc1ccc2ccccc2c1)Oc1ccc2ccccc2c1 (stereo partly drawn) [Compound I-4, (S)-2-[[(2S,3S,4R,5R)-5-(2,4-dioxo-3,4-dihydro-2H-pyrimidin-1-yl)-2,4-difluoro-3-[((S)-1-isopropoxycarbonyl-ethylamino)-(naphthalen-2-yloxy)-phosphoryloxy]-4-methyl-tetrahydro-furan-2-ylmethoxy]-(naphthalen-2-yloxy)-phosphorylamino]-propionic acid isopropyl ester] | > 100 µM |  |  |  | 7.19 µM |
| CC(C)OC(=O)[C@H](C)N[P@](=O)(OC[C@@]1(F)O[C@@H](n2cc(Br)c(=O)[nH]c2=O)[C@](C)(F)[C@@H]1O)Oc1ccc2ccccc2c1 [Compound I-13] | > 100 µM |  |  |  | 38.5 µM |
| CC(C)OC(=O)[C@H](C)N[P@](=O)(OC[C@@]1(F)O[C@@H](n2ccc(=O)[nH]c2=O)[C@](C)(F)[C@@H]1O)Oc1ccc2ccccc2c1 [Compound I-6] | > 100 µM |  |  |  | 0.0537 µM |
| CC(C)OC(=O)[C@H](C)N[P@@](=O)(OC[C@@]1(F)O[C@@H](n2cc(Br)c(=O)[nH]c2=O)[C@](C)(F)[C@@H]1O)Oc1cccc2ccccc12 [Compound I-14, (S)-2-[(R)-[(2S,3S,4R,5R)-5-(5-Bromo-2,4-dioxo-3,4-dihydro-2H-pyrimidin-1-yl)-2,4-difluoro-3-hydroxy-4-methyl-tetrahydro-furan-2-ylmethoxy]-(naphthalen-1-yloxy)-phosphorylamino]-propionic acid isopropyl ester] |  |  | 50.8 µM | 9.64 µM |  |
| CC(C)OC(=O)[C@H](C)N[P@@](=O)(OC[C@@]1(F)O[C@@H](n2ccc(=O)[nH]c2=O)[C@](C)(F)[C@@H]1O)Oc1ccc2ccccc2c1 [Compound I-7] |  |  | > 100 µM | 0.202 µM |  |
| CC(C)OC(=O)[C@H](C)N[P@](=O)(OC[C@@]1(F)O[C@@H](n2ccc(=O)[nH]c2=O)[C@](C)(F)[C@@H]1O)Oc1cccc2ccccc12 [Compound I-9, (S)-2-[(S)-[(2S,3S,4R,5R)-5-(2,4-Dioxo-3,4-dihydro-2H-pyrimidin-1-yl)-2,4-difluoro-3-hydroxy-4-methyl-tetrahydro-furan-2-ylmethoxy]-(naphthalen-1-yloxy)-phosphorylamino]-propionic acid isopropyl ester] | > 100 µM | 0.0602 µM |  |  |  |
